In patent US12398154B2, “Azaquinazoline pan-KRas inhibitors” (Mirati Therapeutics, Inc., priority 2020, dated 2025) one finds IC50 data, which are given here for 21 compounds.

Targets include KRas G12R (Homo sapiens, UniProt P01116, G12R); KRas G12V (Homo sapiens, UniProt P01116, G12V); KRas G12D (Homo sapiens, UniProt P01116, G12D).
Test in all cases: biochemical

Chain of KRas G12R (P01116 1-169 isoform P01116-2 G12R): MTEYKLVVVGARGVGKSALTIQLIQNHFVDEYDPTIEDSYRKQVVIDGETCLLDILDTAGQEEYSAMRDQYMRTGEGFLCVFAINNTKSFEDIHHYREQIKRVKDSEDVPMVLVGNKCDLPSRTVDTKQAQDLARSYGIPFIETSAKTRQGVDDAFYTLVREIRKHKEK
Chain of KRas G12D (P01116 1-169 isoform P01116-2 G12D): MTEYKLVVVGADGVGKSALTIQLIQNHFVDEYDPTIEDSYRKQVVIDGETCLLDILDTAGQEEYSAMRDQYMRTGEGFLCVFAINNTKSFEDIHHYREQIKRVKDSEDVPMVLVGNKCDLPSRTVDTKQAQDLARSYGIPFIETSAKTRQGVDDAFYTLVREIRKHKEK
Chain of KRas G12V (P01116 1-169 isoform P01116-2 G12V): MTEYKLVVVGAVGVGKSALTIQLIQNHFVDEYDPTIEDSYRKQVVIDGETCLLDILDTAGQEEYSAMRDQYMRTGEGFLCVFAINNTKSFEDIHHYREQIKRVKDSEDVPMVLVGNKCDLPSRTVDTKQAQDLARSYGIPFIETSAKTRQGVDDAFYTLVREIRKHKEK

Regarding `O=C1NCC2(CCCN(c3nc(OCC45CCCN4CCC5)nc4c(F)c(-c5cccc6cccc(F)c56)ncc34)C2)N1` (stereo not drawn) [Example 45, 7-(8-fluoro-7-(8-fluoronaphthalen-1-yl)-2-((hexahydro-1H-pyrrolizin-7a-yl)methoxy)pyrido[4,3-d]pyrimidin-4-yl)-1,3,7-triazaspiro[4.5]decan-2-one], the IC50 amounted to 0.362 µM against KRas G12R, 0.189 µM against KRas G12V and 0.089 µM at KRas G12D.

As to `OC1CCN(c2nc(OCC34CCCN3CCC4)nc3c(F)c(-c4cccc5cccc(F)c45)ncc23)CC1` [Example 11, 1-(8-fluoro-7-(8-fluoronaphthalen-1-yl)-2-((hexahydro-1H-pyrrolizin-7a-yl)methoxy)pyrido[4,3-d]pyrimidin-4-yl)piperidin-4-ol], the IC50 against KRas G12R turned out to be 40.1 µM; against KRas G12V, 20.8 µM; against KRas G12D, 15.5 µM.

For `CCc1cccc2cccc(-c3ncc4c(N5CCCC(C)(O)C5)nc(OCC56CCCN5CCC6)nc4c3F)c12` (stereo not drawn) [Example 54, 1-(7-(8-ethylnaphthalen-1-yl)-8-fluoro-2-((hexahydro-1H-pyrrolizin-7a-yl)methoxy)pyrido[4,3-d]pyrimidin-4-yl)-3-methylpiperidin-3-ol], the IC50 on KRas G12R turned out to be 0.528 µM; against KRas G12V, 0.321 µM; against KRas G12D, 0.162 µM.

On to `NS(=O)(=O)CC1CCCN(c2nc(OCC34CCCN3CCC4)nc3c(F)c(-c4cccc5cccc(C(F)(F)F)c45)ncc23)C1` (stereo not drawn) [Example 465, 1-(1-(8-fluoro-2-((hexahydro-1H-pyrrolizin-7a-yl)methoxy)-7-(8-(trifluoromethyl)naphthalen-1-yl)pyrido[4,3-d]pyrimidin-4-yl)piperidin-3-yl)methanesulfonamide], for which the IC50 on KRas G12R turned out to be 10.1 µM; at KRas G12V, 6.1 µM; on KRas G12D, 15.6 µM.

Regarding `CN(CCC(N)=O)c1nc(OCC23CCCN2CCC3)nc2c(F)c(-c3cccc4cccc(F)c34)ncc12` [Example 226, 3-((8-fluoro-7-(8-fluoronaphthalen-1-yl)-2-((hexahydro-1H-pyrrolizin-7a-yl)methoxy)pyrido[4,3-d]pyrimidin-4-yl)(methyl)amino)propanamide], the values for the IC50 against KRas G12R, against KRas G12V and against KRas G12D were 51.9 µM, 14.1 µM and 6.07 µM, respectively.

Consider `Fc1c(-c2cccc3cccc(F)c23)ncc2c(N3CCOCC3)nc(OCC34CCCN3CCC4)nc12` [Example 49, 4-(8-fluoro-7-(8-fluoronaphthalen-1-yl)-2-((tetrahydro-1H-pyrrolizin-7a(5H)-yl)methoxy)pyrido[4,3-d]pyrimidin-4-yl)morpholine], for which the figures for the IC50 on KRas G12R, on KRas G12V and at KRas G12D were 18.9 µM, 27.9 µM and 70 µM, respectively.

For the compound `CCc1c(F)ccc2cc(O)cc(-c3ncc4c(N5CCC[C@](C)(O)C5)nc(OC[C@@H]5C[C@@H](OC(=O)NC)CN5C)nc4c3F)c12` [Example 9, [(3R,5S)-5-[[7-(8-ethyl-7-fluoro-3-hydroxy-1-naphthyl)-8-fluoro-4-[(3S)-3-hydroxy-3-methyl-1-piperidyl]pyrido[4,3-d]pyrimidin-2-yl]oxymethyl]-1-methyl-pyrrolidin-3-yl] N-methylcarbamate], the IC50 at KRas G12R was determined as 0.354 µM; at KRas G12V it was 0.333 µM; against KRas G12D, 0.456 µM.

Consider `OC1CC2CC(C1)N(c1nc(OCC34CCCN3CCC4)nc3c(F)c(-c4cccc5cccc(F)c45)ncc13)C2` (stereo not drawn) [Example 76, 6-(8-fluoro-7-(8-fluoronaphthalen-1-yl)-2-((hexahydro-1H-pyrrolizin-7a-yl)methoxy)pyrido[4,3-d]pyrimidin-4-yl)-6-azabicyclo[3.2.1]octan-3-ol], for which the IC50 was determined as 8.87 µM on KRas G12R, 3.15 µM against KRas G12V and 15.5 µM at KRas G12D.

For `O=C1CC2(CCCCN(c3nc(OCC45CCCN4CCC5)nc4c(F)c(-c5cccc6cccc(F)c56)ncc34)C2)N1` (stereo not drawn) [Example 266, 6-(8-fluoro-7-(8-fluoronaphthalen-1-yl)-2-((hexahydro-1H-pyrrolizin-7a-yl)methoxy)pyrido[4,3-d]pyrimidin-4-yl)-1,6-diazaspiro[3.6]decan-2-one], the IC50 on KRas G12R is 13.9 µM; against KRas G12V, 5.25 µM; on KRas G12D, 6.06 µM.

As for `Cc1cc2sc(N)nc2c(-c2ncc3c(N4CCCC(C)(O)C4)nc(OC[C@@]45CCCN4C[C@H](F)C5)nc3c2F)c1C` (stereo partly drawn) [Example 39, 1-(7-(2-amino-5,6-dimethylbenzo[d]thiazol-4-yl)-8-fluoro-2-(((2R,7aS)-2-fluorotetrahydro-1H-pyrrolizin-7a(5H)-yl)methoxy)pyrido[4,3-d]pyrimidin-4-yl)-3-methylpiperidin-3-ol], the IC50 against KRas G12R was determined as 19.8 µM; at KRas G12V it was 25.5 µM; at KRas G12D, 12.5 µM.

With `O=S1(=O)CCC(Nc2nc(OCC34CCCN3CCC4)nc3c(F)c(-c4cccc5cccc(F)c45)ncc23)C1` (stereo not drawn) [Example 279, 3-((8-fluoro-7-(8-fluoronaphthalen-1-yl)-2-((hexahydro-1H-pyrrolizin-7a-yl)methoxy)pyrido[4,3-d]pyrimidin-4-yl)amino)tetrahydrothiophene 1,1-dioxide], the IC50 was found to be 3.62 µM on KRas G12R, 3.39 µM against KRas G12V and 34.3 µM against KRas G12D.

Take `Fc1c(-c2cccc3cccc(Cl)c23)ncc2c(N3CCCC(c4c[nH]nn4)C3)nc(OCC34CCCN3CCC4)nc12` (stereo not drawn) [Example 108, 4-(3-(1H-1,2,3-triazol-4-yl)piperidin-1-yl)-7-(8-chloronaphthalen-1-yl)-8-fluoro-2-((tetrahydro-1H-pyrrolizin-7a(5H)-yl)methoxy)pyrido[4,3-d]pyrimidine]: the IC50 is 4.19 µM against KRas G12R, 8.1 µM at KRas G12V and 19.7 µM at KRas G12D.

Consider `CCc1c(F)ccc2cc(O)cc(-c3ncc4c(N5CCN6C(C5)C(=O)NC6(C)C)nc(OC[C@@]56CCCN5C[C@H](F)C6)nc4c3F)c12` (stereo partly drawn) [Example 489, 7-(7-(8-ethyl-7-fluoro-3-hydroxynaphthalen-1-yl)-8-fluoro-2-(((2R,7aS)-2-fluorohexahydro-1H-pyrrolizin-7a-yl)methoxy)pyrido[4,3-d]pyrimidin-4-yl)-3,3-dimethylhexahydroimidazo[1,5-a]pyrazin-1(5H)-one], for which the IC50 against KRas G12R was found to be 0.31 µM; against KRas G12V, 0.151 µM; on KRas G12D, 0.221 µM.

As for `O=C1NCCC2(CCCN(c3nc(OCC45CCCN4CCC5)nc4c(F)c(-c5cccc6cccc(F)c56)ncc34)C2)N1` (stereo not drawn) [Example 72, 8-(8-fluoro-7-(8-fluoronaphthalen-1-yl)-2-((tetrahydro-1H-pyrrolizin-7a(5H)-yl)methoxy)pyrido[4,3-d]pyrimidin-4-yl)-1,3,8-triazaspiro[5.5]undecan-2-one], the IC50 worked out at 14 µM on KRas G12R, 10.8 µM at KRas G12V and 14 µM on KRas G12D.

Take `CC1(CNc2nc(OCC34CCCN3CCC4)nc3c(F)c(-c4cccc5cccc(F)c45)ncc23)CCC1` [Example 19, 8-fluoro-7-(8-fluoronaphthalen-1-yl)-2-((hexahydro-1H-pyrrolizin-7a-yl)methoxy)-N-((1-methylcyclobutyl)methyl)pyrido[4,3-d]pyrimidin-4-amine]: the IC50 against KRas G12R was 84.3 µM; against KRas G12V it was 64.5 µM; on KRas G12D, ≥ 100 µM.

Regarding `CN(Cc1cccnc1N)c1nc(OCC23CCCN2CCC3)nc2c(F)c(-c3cccc4cccc(F)c34)ncc12` [Example 79, N-((2-aminopyridin-3-yl)methyl)-8-fluoro-7-(8-fluoronaphthalen-1-yl)-N-methyl-2-((tetrahydro-1H-pyrrolizin-7a(5H)-yl)methoxy)pyrido[4,3-d]pyrimidin-4-amine], the IC50 at KRas G12R stood at 0.65 µM; at KRas G12V, 0.539 µM; against KRas G12D, 15.5 µM.

As for `CN1CCC[C@H]1COc1nc(N2CCOCC2)c2cnc(-c3cc(O)cc4ccccc34)c(F)c2n1` [Example 195, (S)-4-(8-fluoro-2-((1-methylpyrrolidin-2-yl)methoxy)-4-morpholinopyrido[4,3-d]pyrimidin-7-yl)naphthalen-2-ol], the IC50 at KRas G12R turned out to be 1.71 µM; at KRas G12V, 4.91 µM; on KRas G12D, 16.6 µM.

Take `OC1CCCN(c2nc(OCC34CCCN3CCC4)nc3c(F)c(-c4cccc5cccc(F)c45)ncc23)CC1` (stereo not drawn) [Example 8, 1-(8-fluoro-7-(8-fluoronaphthalen-1-yl)-2-((hexahydro-1H-pyrrolizin-7a-yl)methoxy)pyrido[4,3-d]pyrimidin-4-yl)azepan-4-ol]: the IC50 against KRas G12R was found to be 5.41 µM; against KRas G12V it was 2.63 µM; against KRas G12D it was 2.24 µM.

Consider `CC1(O)CCCN(c2nc(OCC34CCCN3CCC4)nc3c(F)c(-c4cccc5cccc(C#N)c45)ncc23)C1` (stereo not drawn) [Example 56, 8-(8-fluoro-2-((hexahydro-1H-pyrrolizin-7a-yl)methoxy)-4-(3-hydroxy-3-methylpiperidin-1-yl)pyrido[4,3-d]pyrimidin-7-yl)-1-naphthonitrile], for which the figures for the IC50 on KRas G12R, at KRas G12V and on KRas G12D were 8.34 µM, 3.76 µM and 2.61 µM, respectively.

For `Fc1c(-c2cccc3cccc(F)c23)ncc2c(N3CCCc4ncccc4C3)nc(OCC34CCCN3CCC4)nc12` [Example 246, 6-(8-fluoro-7-(8-fluoronaphthalen-1-yl)-2-((hexahydro-1H-pyrrolizin-7a-yl)methoxy)pyrido[4,3-d]pyrimidin-4-yl)-6,7,8,9-tetrahydro-5H-pyrido[3,2-c]azepine], the IC50 is 11.3 µM at KRas G12R, 22.1 µM against KRas G12V and 6.41 µM against KRas G12D.

In the case of `Fc1c(-c2cccc3cccc(F)c23)ncc2c(N3CCCn4nccc4C3)nc(OCC34CCCN3CCC4)nc12` [Example 245, 4-(7,8-dihydro-4H-pyrazolo[1,5-a][1,4]diazepin-5(6H)-yl)-8-fluoro-7-(8-fluoronaphthalen-1-yl)-2-((hexahydro-1H-pyrrolizin-7a-yl)methoxy)pyrido[4,3-d]pyrimidine], the results for the IC50 at KRas G12R, on KRas G12V and at KRas G12D were 9.83 µM, 11.7 µM and 2.99 µM, respectively.
